GI50 and TGI data for ten compounds are collected here from PubChem BioAssay (NCI).

The structures appear in SMILES notation.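 These data come from cells grown in 96-well plates and exposed to compound for 48 hours at five concentrations. GI50: concentration for 50% inhibition of growth. TGI: total growth inhibition.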

What all share (experiment): NCI-60 cell line screen, 48 h
The test system of test [1] is PC-3 prostate.
The test system of test [2] is KM12 colon.
For test [3], the system named is TK-10 renal.
Test [4] has as its system U251 CNS.
The test system of test [5] is HOP-92 NSCLC.
In test [6] the test system is SK-MEL-28 melanoma.
The test system of test [7] is HCT-116 colon.
Test [8] deals with UACC-62 melanoma.
Test [9] deals with SN12C renal.
For test [10], the system named is SR leukemia.

Regarding `Cc1ccc(NC(=S)NNC(=S)Nc2ccc(C)cc2)cc1`, the GI50 in test [1] is 10.2 µM; in test [2], 3.63 µM; in test [3], 18.2 µM; in test [4], 5.16 µM; in test [5], 6.43 µM; in test [6], 8.39 µM. For the same compound, the values for the GI50 in test [7] and in test [8] were 3.81 µM and 5.17 µM, respectively. In addition, the TGI in test [1], in [2], in [3], in test [4], in test [5] and in test [6] was over 100 µM throughout. The TGI in test [7] and in test [8] was over 100 µM throughout.

For `CC(C)[C@@]12C[C@@H](OC(=O)COC(=O)c3ccccc3)[C@@](C)(O1)[C@@H]1CC[C@@H](C)[C@H]1[C@@H]2OC(=O)/C=C/c1ccccc1`, the GI50 in [1] is 22.7 µM; in test [2], over 100 µM; in [3], over 100 µM; in test [4], over 100 µM; in test [9], 7.35 µM; in [5] it was 33.5 µM. Further, the GI50 in [6], in test [7] and in test [8] was over 100 µM in each case. For the same compound, the TGI in [1], in test [2], in test [3], in test [4], in [9] and in test [5] was over 100 µM each time. The TGI in test [6], in test [7] and in [8] was over 100 µM in each case.

Turning to `COc1ccc(-c2cc(=O)c3c(OC)c4ccoc4c(/C=C/C=O)c3o2)cc1`, the GI50 in [1] is 2.58 µM; in [2] it was 12.3 µM; in [4] it was 2.53 µM; in [9], 2.32 µM; in [5] it was 16.8 µM; in [6], 2.52 µM. Besides, the figures for the GI50 in test [7] and in test [8] were 1.06 µM and 1.77 µM, respectively. For the same compound, the TGI came out at 16.5 µM in test [1]; 25.7 µM in [2]; 10.3 µM in test [4]; 59.5 µM in test [9]; 98.7 µM in [5]; 7.1 µM in test [6]. For the same compound, the TGI in [7] came to 3.43 µM; in test [8], 5.11 µM.

Turning to `C[n+]1cccc(NC(=O)c2ccc3ccc4ccc(C(=O)Nc5ccc[n+](C)c5)nc4c3n2)c1`, the GI50 in [1] is 6.21 µM; in test [2], 3.08 µM; in [3], 53.7 µM; in test [4], 2.23 µM; in test [9], 0.157 µM; in [5], 7.15 µM. In addition, the GI50 in test [6] is 2.13 µM; in test [7], 3.18 µM; in test [8] it was 0.357 µM. In addition, the TGI is over 100 µM in test [1]; over 100 µM in [2]; over 100 µM in test [3]; over 100 µM in test [4]; 1.32 µM in test [9]; over 65.1 µM in test [5]. Also, the TGI was over 100 µM in [6], over 100 µM in [7] and 2.05 µM in test [8].

For the compound `COC(=O)c1cc(O)ccc1O`, the TGI in test [2], in test [3], in test [4], in [9], in [5] and in test [6] was over 100 µM throughout. In addition, the TGI in [8] was over 100 µM.

Turning to `CO/N=C(/C)COc1ccc2c(c1)oc(=O)c1cc(OC)ccc12`, the GI50 in [1], in [2], in test [3], in [4], in test [9] and in test [5] was over 100 µM throughout. Also, the GI50 in [6], in [7] and in test [8] was over 100 µM each time. Also, the TGI in test [1], in test [2], in test [3], in test [4], in [9] and in test [5] was over 100 µM throughout. The TGI in [6], in test [7] and in test [8] was over 100 µM throughout.

Turning to `CC(=O)OC(C(=O)[O][Ge]([CH3])([CH3])[CH3])c1ccccc1` (stereo not given), the GI50 in test [2], in test [3], in [4], in test [9], in test [5] and in test [6] was over 100 µM throughout. Besides, the GI50 in test [7] and in test [8] was over 100 µM throughout. Also, the TGI in test [2], in [3], in test [4], in test [9], in [5] and in test [6] was over 100 µM throughout. Besides, the TGI in [7] and in test [8] was over 100 µM each time.

Turning to `CC(=O)Oc1ccc2c(=O)c(C(C)=O)coc2c1`, the TGI in test [2], in [3], in test [4], in [10], in test [5] and in test [6] was over 100 µM in each case. Also, in test [7], the TGI was over 100 µM.

As for `CCOC(=O)C(C(=O)OCC)=C1C=C(c2ccccc2)c2ccccc21`, the TGI is over 100 µM in [2]; over 100 µM in test [3]; over 100 µM in test [4]; over 100 µM in [9]; 46.8 µM in [5]; over 100 µM in test [6]. For the same compound, the TGI in test [7] and in [8] was over 100 µM throughout.

For `CCCCCOC(=O)Nc1nc(=O)n(C2OC(C)C(O)C2O)cc1F` (stereo not given), the GI50 in [1], in test [2], in [3], in test [4], in test [9] and in test [5] was over 10000 µM throughout. Moreover, the GI50 in test [6] and in test [7] was over 10000 µM throughout. The TGI in test [1], in test [2], in test [3], in test [4], in test [9] and in test [5] was over 10000 µM throughout. The TGI in test [6] and in test [7] was over 10000 µM in each case.
